Source: PMC10141580, “Cyclic Dichalcogenides Extend the Reach of Bioreductive Prodrugs to Harness Thiol/Disulfide Oxidoreductases: Applications to seco-Duocarmycins Targeting the Thioredoxin System” (ACS Central Science, 2023)
Where two headings read alike, the source gives them in different places.

System: NCI-60 standardized human tumor cell line panel
Experiment: cells
Type: cell-based
Conditions: for NCI-60 screening: Log(GI50): log10 of GI50 in M; for NCI-60 screening: Log(RedIndex): log10 reductive index vs P-CC60

COc1cc2cc(C(=O)N3C[C@@H](CCl)c4c3cc(OC(=O)N(CCC(=O)N3CCN(C)CC3)[C@H]3CCSSC3)c3ccccc43)[nH]c2c(OC)c1OC [P-SS60-CBI-TMI]
NCI-60 screening: Log(GI50) (786-0 (RE) cell line): -6.79 | NCI-60 screening: Log(RedIndex) (786-0 (RE) cell line): 1.02 | GI50 (786-0 (RE) cell line, read-out: NCI-60 screening: Raw GI50): 160 nM | GI50 (786-0, read-out: GI50): 160 nM | NCI-60 screening: Log(GI50) (A498 (RE) cell line): -6.6 | NCI-60 screening: Log(RedIndex) (A498 (RE) cell line): 1.04 | GI50 (A498 (RE) cell line, read-out: NCI-60 screening: Raw GI50): 250 nM | GI50 (A498, read-out: GI50): 250 nM | GI50 (A549/ATCC, read-out: GI50): 150 nM | NCI-60 screening: Log(GI50) (ACHN (RE) cell line): -7.25 | NCI-60 screening: Log(RedIndex) (ACHN (RE) cell line): 0.94 | GI50 (ACHN (RE) cell line, read-out: NCI-60 screening: Raw GI50): 56 nM | GI50 (ACHN, read-out: GI50): 56 nM | GI50 (BT-549, read-out: GI50): 230 nM | NCI-60 screening: Log(GI50) (CAKI-1 (RE) cell line): -6.57 | NCI-60 screening: Log(RedIndex) (CAKI-1 (RE) cell line): 0.74 | GI50 (CAKI-1 (RE) cell line, read-out: NCI-60 screening: Raw GI50): 270 nM | GI50 (CAKI-1, read-out: GI50): 270 nM | GI50 (CCRF-CEM, read-out: GI50): 220 nM | GI50 (COLO 205, read-out: GI50): 340 nM | NCI-60 screening: Log(GI50) (DU-145 (PR) cell line): -7.23 | NCI-60 screening: Log(RedIndex) (DU-145 (PR) cell line): 0.89 | GI50 (DU-145, read-out: GI50): 59 nM | GI50 (EKVX, read-out: GI50): 320 nM | GI50 (HCC-2998, read-out: GI50): 160 nM | GI50 (HCT-15, read-out: GI50): 260 nM | GI50 (HCT-116, read-out: GI50): 160 nM | GI50 (HL-60(TB), read-out: GI50): 120 nM | GI50 (HOP-62, read-out: GI50): 110 nM | GI50 (HOP-92, read-out: GI50): 350 nM | GI50 (HT29, read-out: GI50): 270 nM | NCI-60 screening: Log(GI50) (IGROV1 (OV) cell line): -6.3 | NCI-60 screening: Log(RedIndex) (IGROV1 (OV) cell line): 0.66 | GI50 (IGROV1, read-out: GI50): 500 nM | GI50 (K-562, read-out: GI50): 160 nM | GI50 (KM12, read-out: GI50): 270 nM | GI50 (LOX IMVI, read-out: GI50): 210 nM | GI50 (M14, read-out: GI50): 190 nM | GI50 (MALME-3M, read-out: GI50): 280 nM | GI50 (MCF7, read-out: GI50): 35 nM | GI50 (MDA-MB-435, read-out: GI50): 210 nM | GI50 (MDA-MB-468, read-out: GI50): 170 nM | GI50 (MOLT-4, read-out: GI50): 90 nM | GI50/IC50, mean (NCI-60 vs ProliFiler, 19 overlapping cell lines): 4.0 | GI50 (NCI-H23, read-out: GI50): 55 nM | GI50 (NCI-H226, read-out: GI50): 430 nM | NCI-60 screening: Log(GI50) (NCI-H460 (LC) cell line): -7.25 | NCI-60 screening: Log(RedIndex) (NCI-H460 (LC) cell line): 0.96 | GI50 (NCI-H460 (LC) cell line, read-out: NCI-60 screening: Raw GI50): 56 nM | GI50 (NCI-H460, read-out: GI50): 56 nM | NCI-60 screening: Log(GI50) (NCI-H522 (LC) cell line): -6.58 | NCI-60 screening: Log(RedIndex) (NCI-H522 (LC) cell line): 0.81 | GI50 (NCI-H522 (LC) cell line, read-out: NCI-60 screening: Raw GI50): 260 nM | GI50 (NCI-H522, read-out: GI50): 260 nM | NCI-60 screening: Log(GI50) (OVCAR-3 (OV) cell line): -6.63 | NCI-60 screening: Log(RedIndex) (OVCAR-3 (OV) cell line): 0.95 | GI50 (OVCAR-3, read-out: GI50): 240 nM | NCI-60 screening: Log(GI50) (OVCAR-4 (OV) cell line): -6.33 | NCI-60 screening: Log(RedIndex) (OVCAR-4 (OV) cell line): 0.7 | GI50 (OVCAR-4, read-out: GI50): 460 nM | NCI-60 screening: Log(GI50) (OVCAR-5 (OV) cell line): -6.51 | NCI-60 screening: Log(RedIndex) (OVCAR-5 (OV) cell line): 1.22 | GI50 (OVCAR-5, read-out: GI50): 310 nM | NCI-60 screening: Log(GI50) (OVCAR-8 (OV) cell line): -6.73 | NCI-60 screening: Log(RedIndex) (OVCAR-8 (OV) cell line): 0.95 | GI50 (OVCAR-8 (OV) cell line, read-out: NCI-60 screening: Raw GI50): 190 nM | GI50 (OVCAR-8, read-out: GI50): 190 nM | NCI-60 screening: Log(GI50) (PC-3 (PR) cell line): -6.14 | NCI-60 screening: Log(RedIndex) (PC-3 (PR) cell line): 0.64 | GI50 (PC-3, read-out: GI50): 720 nM | GI50 (RPMI-8226, read-out: GI50): 220 nM | NCI-60 screening: Log(GI50) (RXF 393 (RE) cell line): -6.83 | NCI-60 screening: Log(RedIndex) (RXF 393 (RE) cell line): 0.85 | GI50 (RXF 393 (RE) cell line, read-out: NCI-60 screening: Raw GI50): 150 nM | GI50 (RXF 393, read-out: GI50): 150 nM | GI50 (SF-268, read-out: GI50): 190 nM | GI50 (SF-295, read-out: GI50): 140 nM | GI50 (SF-539, read-out: GI50): 170 nM | GI50 (SK-MEL-5, read-out: GI50): 170 nM | GI50 (SK-MEL-28, read-out: GI50): 290 nM | NCI-60 screening: Log(GI50) (SK-OV-3 (OV) cell line): -6.58 | NCI-60 screening: Log(RedIndex) (SK-OV-3 (OV) cell line): 0.91 | GI50 (SK-OV-3 (OV) cell line, read-out: NCI-60 screening: Raw GI50): 260 nM | GI50 (SK-OV-3, read-out: GI50): 260 nM | NCI-60 screening: Log(GI50) (SN12C (RE) cell line): -6.54 | NCI-60 screening: Log(RedIndex) (SN12C (RE) cell line): 0.62 | GI50 (SN12C (RE) cell line, read-out: NCI-60 screening: Raw GI50): 290 nM | GI50 (SN12C, read-out: GI50): 290 nM | GI50 (SNB-19, read-out: GI50): 250 nM | GI50 (SR, read-out: GI50): 34 nM | GI50 (SW-620, read-out: GI50): 220 nM | GI50 (T-47D, read-out: GI50): 700 nM | NCI-60 screening: Log(GI50) (TK-10 (RE) cell line): -5.47 | NCI-60 screening: Log(RedIndex) (TK-10 (RE) cell line): -0.07 | GI50 (TK-10, read-out: GI50): 3400 nM
